Our source for the Kd values is PMC11939889, “Efficient Incorporation of DOPA into Proteins Free from Competition with Endogenous Translation Termination Machinery” (Biomolecules, 2025).

In this test the target is T1, DOPARS (Methanocaldococcus jannaschii, UniProt Q57834, D158A/D286A/E220K/F261S/H283P/H70A/I159A/L282P/L65E/M285R/N268D/P284L/Y119F).
T1 construct: gene tyrS
In words: isothermal titration calorimetry. It counts as binding.

T1 sequence (Q57834 whole entry L65E/H70A/Y119F/D158A/I159A/E220K/F261S/N268D/L282P/H283P/P284L/M285R/D286A): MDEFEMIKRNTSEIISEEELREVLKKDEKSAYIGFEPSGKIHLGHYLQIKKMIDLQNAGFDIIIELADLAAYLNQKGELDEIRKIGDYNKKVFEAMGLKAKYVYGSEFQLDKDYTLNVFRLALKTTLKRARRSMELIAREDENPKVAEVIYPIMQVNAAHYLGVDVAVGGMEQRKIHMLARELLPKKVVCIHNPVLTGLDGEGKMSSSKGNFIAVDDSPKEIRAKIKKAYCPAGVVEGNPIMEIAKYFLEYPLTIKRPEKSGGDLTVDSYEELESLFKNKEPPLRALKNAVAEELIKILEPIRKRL

As for `N[C@@H](Cc1ccc(O)c(O)c1)C(=O)O` [DOPA, 3,4-Dihydroxy-L-phenylalanine], binding was characterised by a dissociation constant (Kd) of 11.7 µM.
